A short description of data set [1]: In vitro cytotoxicity assay (MTT cell viability) in HepG2 cells. The class given is cell-based. The following applies: human. Here is the method: To evaluate antiviral selectivity, the cytotoxic activity of each compound was determined using a standard cell viability assay performed on the parental HepG2 cell line. Cell viability was determined by measuring the conversion of 3-(4,5-dimethylthiazol-2-yl)-2,5-diphenyltetrazolium bromide (MTT) to the insoluble formazan salt crystal that occurs in live cells. Briefly, HepG2 cells were seeded in 96-well plates at a density of 20,000 cells per well in EMEM+10% FBS (complete growth medium) and allowed to adhere overnight in a 37° C., 5% CO2 humidified incubator. The next day, test agents were prepared by performing 8 half-log10 serial dilutions in 100% DMSO at 200×the final desired concentration in the assay. Compounds were tested over a range of concentrations from 30 μM to 1.0 nM in the assay. HepG2 cells were incubated in the presence of various concentrations of CAMs for 7 days in a 37° C., 5% CO2 humidified incubator. At the completion of the 7-day incubation period, MTT reagent was added to each well and the mixture was incubated for an additional 3-4 hours. At the completion of the incubation period, all wells were aspirated to remove the culture medium. The formazan crystals were solubilized from the cell monolayers with 100% DMSO. Plates were briefly mixed on an orbital shaker and absorbance was measured at 492 nm using a Perkin-Elmer EnVision multi-label plate reader. All absorbance values were converted to a percentage of the signal obtained from the vehicle treated controls. Absorbance values at 492 nm are directly proportional to the number of viable cells present in the sample. A CC50 value (cytotoxic concentration that results in loss of 50% cell viability) was calculated from the dose-response curve by 4-parameter, non-linear regression analysis using the GraphPad Prism software. The positive control compound, staurosporine, reduced the viability of HepG2 cells in a dose-dependent manner (CC50=100 nM).

Data set [2] relates to HBV replication in HepAD38 cells. Briefly: In vitro antiviral assay: extracellular HBV DNA by QPCR in HepAD38 cells. The class given is cell-based, HBV (genotype D, serotype ayw). The following applies: Hepatitis B virus, 168 h. As to the method: The anti-HBV activity of the Capsid Assembly Modulators (CAMs) was evaluated in a cell based assay utilizing the human hepatoma cell line HepAD38 (Ladner, S K., et al., 1998). HepAD38 cells were derived from the parental line, HepG2, that were stably transfected with a construct containing an HBV genome (genotype D, serotype ayw) under the control of a tetracycline repressible CMV promoter. Upon removal of tetracycline, viral pre-genomic RNA (pgRNA) and mRNAs are expressed and infectious viral particles are assembled and secreted into the culture medium providing a reliable, robust system to measure multiple steps of the HBV life cycle. Disruption of capsid formation results in reduced levels of DNA-containing virus particles that are released into the culture supernatant. To quantify the effect of CAMs on HBV replication, we developed a sensitive QPCR-based assay that measures extracellular HBV DNA levels upon treatment of HepAD38 cells with various concentrations of test compounds.
HepAD38 cells were maintained in DMEM/F12 medium containing 10% FBS, 400 μg/mL G418 and 0.3 μg/mL tetracycline (tet+media) to maintain repression of HBV replication. To evaluate each compound, HepAD38 cells were seeded into 24-well collagen coated culture plates (Corning BioCoat) at a density of 200,000 cells per well in 1 mL of medium without tetracycline (tet-media) and allowed to adhere overnight at 37° C., 5% CO2 in a humidified incubator. The following day, media was refreshed and a dose range of each compound was prepared by performing 1 log10 serial dilutions in 100% DMSO at 200×the desired assay concentration. Dilutions were then added to the cells resulting in a final dose range of 1 μM to 10 pM and the plates were returned to the incubator. Following 7 days of incubation, culture supernatants were harvested and HBV DNA levels were evaluated by QPCR and compared to the vehicle treated control wells (i.e. DMSO alone).
To quantify HBV DNA levels, cell culture supernatants were diluted 1:10 in sterile, nuclease-free water (Gibco). The diluted supernatants were subsequently added to a PCR master mix containing 1×Roche Light Cycler Master Mix, 0.5 μM forward primer, 0.5 μM reverse primer, 0.2 μM Roche Universal Probe Library Probe 25. The volume was brought to 20 μL with nuclease-free water and amplification of the HBV target sequence was performed using a Roche LightCycler 480 QPCR instrument. PCR extended out to 45 cycles with each cycle consisting of a denaturation step at 95° C. for 10 sec., followed by an annealing step at 60° C. for 10 sec. and a brief extension step at 72° C. for 1 sec.
Extracellular HBV DNA levels, expressed in copies/mL, were determined by comparison to a standard curve (10^2-10^9 copies/mL) using the Roche LightCycler analysis software. These values were subsequently converted to percent inhibition of HBV replication by dividing the HBV DNA levels in the experimental samples with those obtained from the vehicle control (˜1-2×10^5 copies/mL). Potency, expressed as an EC50(the effective concentration required to inhibit 50% of HBV replication), was calculated from the dose-response curve using a 4-parameter non-linear regression analysis (GraphPad Prism). The nucleoside analog inhibitor entecavir was used as a positive control to validate each assay run. The EC50 value of entecavir in the HepAD38 assay was 0.5 nM, as previously reported in the literature.

[3] abbreviates: 7 days incubation, read-out: Anti-HBV EC50.

Read-outs that look alike come from different tables or passages of the source.

The term CC50 denotes the concentration giving 50% cytotoxicity. A word on the EC50: it is the concentration at which the effect is half-maximal.

As for `Cc1c(C(=O)Nc2ccc(F)c(F)c2)c2c(n1C)C(=O)NC(C)(C)CC2` [Example 2, N-(3,4-difluorophenyl)-1,2,6,6-tetramethyl-8-oxo-1,4,5,6,7,8-hexahydropyrrolo[2,3-c]azepine-3-carboxamide], the CC50 at 7 days in data set [1] was 5000 to 30000 nM. Besides, the half-maximal effective concentration (EC50) in data set [2] (setting [3]) is 50 to 499 nM.

For `CCn1c(C)c2c(c1C(=O)Nc1ccc(F)c(C)c1)CCC(C)(C)NC2=O` [Example 3, 2-ethyl-N-(4-fluoro-3-methylphenyl)-3,6,6-trimethyl-4-oxo-2,4,5,6,7,8-hexahydropyrrolo[3,4-c]azepine-1-carboxamide], in data set [1], the half-maximal cytotoxic concentration (CC50) at 7 days is over 30000 nM. Also, in data set [2] (setting [3]), the EC50 was under 50 nM.

Take `Cc1cc(NC(=O)c2c3c(c(C)n2C)C(=O)NC(C)(C)CC3)ccc1F` [Example 4, N-(4-fluoro-3-methylphenyl)-2,3,6,6-tetramethyl-4-oxo-2,4,5,6,7,8-hexahydropyrrolo[3,4-c]azepine-1-carboxamide]: the CC50 at 7 days in data set [1] was over 30000 nM. The 50% effective concentration (EC50) in data set [2] (setting [3]) was under 50 nM.

`Cc1c2c(c(C(=O)Nc3cc(F)c(F)c(F)c3)n1C)CCC(C)(C)NC2=O` [Example 5, 2,3,6,6-tetramethyl-4-oxo-N-(3,4,5-trifluorophenyl)-2,4,5,6,7,8-hexahydropyrrolo[3,4-c]azepine-1-carboxamide] had a CC50 at 7 days in data set [1] of over 30000 nM. Also, the concentration for a half-maximal effect (EC50) in data set [2] (setting [3]) is over 1000 nM.

Molecule `Cc1cc(NC(=O)c2c3c(c(C)n2C)C(=O)NC(C)(C)CC3)cnc1F` [Example 6, N-(6-fluoro-5-methylpyridin-3-yl)-2,3,6,6-tetramethyl-4-oxo-2,4,5,6,7,8-hexahydropyrrolo[3,4-c]azepine-1-carboxamide] registered a CC50 at 7 days in data set [1] of over 30000 nM. The EC50 in data set [2] (setting [3]) is over 1000 nM.

In turn, `Cc1c2c(c(C(=O)Nc3ccnc(F)c3)n1C)CCC(C)(C)NC2=O` [Example 7, N-(2-fluoropyridin-4-yl)-2,3,6,6-tetramethyl-4-oxo-2,4,5,6,7,8-hexahydropyrrolo[3,4-c]azepine-1-carboxamide] returned a CC50 at 7 days in data set [1] of over 30000 nM. Besides, the EC50 in data set [2] (setting [3]) is 50 to 499 nM.

`Cc1c2c(c(C(=O)Nc3cccc(Cl)c3)n1C)CCC(C)(C)NC2=O` [Example 8, N-(3-chlorophenyl)-2,3,6,6-tetramethyl-4-oxo-2,4,5,6,7,8-hexahydropyrrolo[3,4-c]azepine-1-carboxamide] displayed a CC50 at 7 days in data set [1] of over 30000 nM. The EC50 in data set [2] (setting [3]) lay within 50 to 499 nM.

In turn, `Cc1c2c(c(C(=O)Nc3cccc(C(F)F)c3)n1C)CCC(C)(C)NC2=O` [Example 9, N-(3-(difluoromethyl)phenyl)-2,3,6,6-tetramethyl-4-oxo-2,4,5,6,7,8-hexahydropyrrolo[3,4-c]azepine-1-carboxamide] showed a cytotoxic concentration (CC50) at 7 days in data set [1] of over 30000 nM. In addition, the half-maximal effective concentration (EC50) in data set [2] (setting [3]) lay in the range of 50 to 499 nM.

In data set [1], `Cc1ccc(F)c(NC(=O)c2c3c(c(C)n2C)C(=O)NC(C)(C)CC3)c1` [Example 10, N-(2-fluoro-5-methylphenyl)-2,3,6,6-tetramethyl-4-oxo-2,4,5,6,7,8-hexahydropyrrolo[3,4-c]azepine-1-carboxamide] had a half-maximal cytotoxic concentration (CC50) at 7 days of over 30000 nM. Also, the concentration giving a half-maximal response (EC50) in data set [2] (setting [3]) is under 50 nM.

`Cc1cc(F)cc(NC(=O)c2c3c(c(C)n2C)C(=O)NC(C)(C)CC3)c1` [Example 11, N-(3-fluoro-5-methylphenyl)-2,3,6,6-tetramethyl-4-oxo-2,4,5,6,7,8-hexahydropyrrolo[3,4-c]azepine-1-carboxamide]: the half-maximal cytotoxic concentration (CC50) at 7 days in data set [1] is over 30000 nM. Further, the EC50 in data set [2] (setting [3]) was under 50 nM.

Take `Cc1c2c(c(C(=O)Nc3ccc(F)c(C(F)F)c3)n1C)CCC(C)(C)NC2=O` [Example 12, N-(3-(difluoromethyl)-4-fluorophenyl)-2,3,6,6-tetramethyl-4-oxo-2,4,5,6,7,8-hexahydropyrrolo[3,4-c]azepine-1-carboxamide]: the CC50 at 7 days in data set [1] is over 30000 nM. The EC50 in data set [2] (setting [3]) was under 50 nM.

Regarding `C=C1c2c(c(C)n(C)c2C(=O)Nc2ccc(F)c(C)c2)C(=O)NC1C` (centres unmarked) [Example 22, N-(4-fluoro-3-methylphenyl)-2,3,6-trimethyl-7-methylene-4-oxo-4,5,6,7-tetrahydro-2H-pyrrolo[3,4-c]pyridine-1-carboxamide], in data set [1], the CC50 at 7 days lay in the range of 500 to 4990 nM. Also, the EC50 in data set [2] (setting [3]) was 500 to 1000 nM.

Turning to `Cc1cc(NC(=O)c2c3c(c(C)n2C)C(=O)NC(C)C3C)ccc1F` (centres unmarked) [Example 23, N-(4-fluoro-3-methylphenyl)-2,3,6,7-tetramethyl-4-oxo-4,5,6,7-tetrahydro-2H-pyrrolo[3,4-c]pyridine-1-carboxamide], the CC50 at 7 days in data set [1] is over 30000 nM. Further, the EC50 in data set [2] (setting [3]) was under 50 nM.

As to `Cc1cc(NC(=O)c2c3c(c(C)n2C)C(=O)NC(C)CC3)ccc1F` (centres unmarked) [Example 24, N-(4-fluoro-3-methylphenyl)-2,3,6-trimethyl-4-oxo-2,4,5,6,7,8-hexahydropyrrolo[3,4-c]azepine-1-carboxamide], in data set [1], the 50% cytotoxic concentration (CC50) at 7 days was over 30000 nM. In data set [2] (setting [3]), the EC50 was under 50 nM.

In data set [1], `Cc1cc(NC(=O)c2c3c(n(C)c2C)C(=O)NC(C)CC3)ccc1F` (centres unmarked) [Example 25, N-(4-fluoro-3-methylphenyl)-1,2,6-trimethyl-8-oxo-1,4,5,6,7,8-hexahydropyrrolo[2,3-c]azepine-3-carboxamide] showed a CC50 at 7 days of over 30000 nM. For the same molecule, the concentration giving a half-maximal response (EC50) in data set [2] (setting [3]) is under 50 nM.

In data set [1], `Cc1cc(NC(=O)c2c3c(C)c(C)[nH]c(=O)c3c(C)n2C)ccc1F` [Example 45, N-(4-fluoro-3-methylphenyl)-2,3,6,7-tetramethyl-4-oxo-4,5-dihydro-2H-pyrrolo[3,4-c]pyridine-1-carboxamide] yielded a 50% cytotoxic concentration (CC50) at 7 days of 5000 to 30000 nM. In addition, in data set [2] (setting [3]), the EC50 lay within 500 to 1000 nM.

`Cc1cc(NC(=O)c2c3c(c(C)n2C)C(=O)N[C@@H](C)C3)ccc1F` [Example 46, (S)-N-(4-fluoro-3-methylphenyl)-2,3,6-trimethyl-4-oxo-4,5,6,7-tetrahydro-2H-pyrrolo[3,4-c]pyridine-1-carboxamide]: the CC50 at 7 days in data set [1] was over 30000 nM. Further, the 50% effective concentration (EC50) in data set [2] (setting [3]) was under 50 nM.

Consider `Cc1cccc(NC(=O)c2c3c(c(C)n2C)C(=O)N[C@@H](C)C3)c1F` [Example 47, (S)-N-(2-fluoro-3-methylphenyl)-2,3,6-trimethyl-4-oxo-4,5,6,7-tetrahydro-2H-pyrrolo[3,4-c]pyridine-1-carboxamide], for which the CC50 at 7 days in data set [1] is over 30000 nM. Also, in data set [2] (setting [3]), the EC50 lay within 500 to 1000 nM.

Consider `C=C1[C@H](CO)[C@@H](O)C[C@@H]1n1cnc2c(=O)[nH]c(N)nc21` [entecavir, reference compound], for which, in data set [2] (positive control, 7 days, read-out: EC50 in the HepAD38 assay), the EC50 came to 0.5 nM.

As to `CN[C@@H]1C[C@H]2O[C@@](C)([C@@H]1OC)n1c3ccccc3c3c4c(c5c6ccccc6n2c5c31)C(=O)NC4` [staurosporine, reference compound], the cytotoxic concentration (CC50) at 7 days in data set [1] (positive control, HepG2 cells, 7 days, MTT, read-out: CC50 (viability of HepG2 cells)) amounted to 100 nM.
